US10368545B2, “Substituted 2-thioimidazolylcarboxamides as pesticides” (BAYER CROPSCIENCE AKTIENGESELLSCHAFT, priority 2015, dated 2019)
Values joined by “and” are separate entries in the source; they are usually repeats but may differ in a detail not shown here. Equal values may be shown once. Read-outs that look alike come from different tables or passages of the source.

Legend:
[1] = log P by HPLC on reversed-phase C18 columns (OECD Guideline 117); type: physicochemical; details: for chromatographic logP: reversed-phase C18 HPLC column; for logP[a]: method [a]; for logP[b]: method [b]; for log P[a]: acidic range; for log P[n]: neutral range
Procedure: The log P values were determined in accordance with OECD Guideline 117 (EC Directive 92/69/EEC) by HPLC (high-performance liquid chromatography) using reversed-phase (RP) columns (C18), by the following methods:
[a] The LC-MS determination in the acidic range was carried out at pH 2.7 with 0.1% aqueous formic acid and acetonitrile (contains 0.1% formic acid) as mobile phases; linear gradient from 10% acetonitrile to 95% acetonitrile.
[b] LC-MS determination in the neutral range was carried out at pH 7.8 with 0.001 molar aqueous ammonium hydrogencarbonate solution and acetonitrile as mobile phases; linear gradient from 10% acetonitrile to 95% acetonitrile.

[2] = test system: green peach aphid (Myzus persicae); assay: Myzus persicae spray test (Chinese cabbage leaf discs); type: in vivo; details: application rate 500 g/ha, after 5 or 6 days, Chinese cabbage leaf discs
Procedure: Myzus persicae—Spray Test
Solvent: 78 parts by weight of acetone • • 1.5 parts by weight of dimethylformamide
Emulsifier: alkylaryl polyglycol ether
To produce a suitable active compound preparation, 1 part by weight of active compound is dissolved using the stated parts by weight of solvent and made up with water containing an emulsifier concentration of 1000 ppm until the desired concentration is attained. To produce further test concentrations, the preparation is diluted with emulsifier-containing water.
Discs of Chinese cabbage leaves (Brassica pekinensis) infested by all stages of the green peach aphid (Myzus persicae) are sprayed with an active compound preparation of the desired concentration.
After 5 or 6 days, the efficacy in % is determined. 100% means that all the aphids were killed; 0% means that no aphids were killed.

[3] = pH 2.7, acidic range, pH 2.7, 0.1% aqueous formic acid / acetonitrile, read-out: log P[a]
[4] = pH 2.7, method [a], read-out: logP[a]
[5] = pH 7.8, method [b], read-out: logP[b]
[6] = pH 2.7, 0.1% aqueous formic acid / acetonitrile
[7] = pH 7.8, 0.001 molar aqueous ammonium hydrogencarbonate / acetonitrile

Structure (SMILES)	logP[a] [1]	logP[b] [1]	efficacy (aphids killed) [2] [%]	other results
CN(C(=O)c1cncn1Cc1ccccc1)c1cccnc1 [1-benzyl-N-methyl-N-(pyridin-3-yl)-1H-imidazole-5-carboxamide]				chromatographic logP [1, 3]: 0.85; chromatographic logP ([1]; pH 7.8, neutral range, pH 7.8, 0.001 molar aqueous ammonium hydrogencarbonate / acetonitrile, read-out: log P[n]): 1.4
CN(C(=O)c1cnc(Sc2ccccc2[N+](=O)[O-])n1C)c1cccnc1 [I-A-16]	1.68	1.78	90	
COC(=O)CSc1ncc(C(=O)N(C)c2cccnc2)n1C [I-A-25]	0.88	1.09	90	
CN(C(=O)c1cnc(SCC(=O)C(C)(C)C)n1C)c1cccnc1 [I-A-28]	1.53	1.78	90	
CN(C(=O)c1cnc(SCC(=O)C2CC2)n1C)c1cccnc1 [I-A-31]	0.97	1.28	90	
CN(C(=O)c1cnc(SCC(N)=O)n1C)c1cccnc1 [I-A-32]	0.11	0.50		
CNC(=O)CSc1ncc(C(=O)N(C)c2cccnc2)n1C [I-A-33]				chromatographic logP [1, 4]: 0.33; chromatographic logP [1, 5]: 0.62
CN(C)C(=O)c1ccccc1Sc1ncc(C(=O)N(C)c2cccnc2)n1C [I-A-67]	1.17	1.25	90	
COc1ccccc1Sc1ncc(C(=O)N(C)c2cccnc2)n1C [I-A-72]	1.59	1.74		
CN(C(=O)c1cnc([S+]([O-])c2ccc(C(C)(C)C)cc2)n1C)c1cccnc1 (centres unmarked) [I-A-75]	2.14	2.19	90	
CN(C(=O)c1cnc(S(=O)(=O)c2ccc(F)cc2)n1C)c1ccc[n+]([O-])c1 [I-A-83]				chromatographic logP [1, 4]: 1.12; chromatographic logP [1, 5]: 1.23; pest or weed control at 500 g/ha ([2]; Myzus persicae, foliar, read-out: efficacy (aphids killed)): 90%
CN(C(=O)c1cnc(S(=O)(=O)c2ccccn2)n1C)c1cccnc1 [I-A-85]	1.01	1.10		
CN(C(=O)c1cnc(S(=O)(=O)c2ccccc2)n1C)c1cccnc1 [I-A-88]	1.37	1.47		
CN(C)C(=O)c1cccc([S+]([O-])c2ncc(C(=O)N(C)c3cccnc3)n2C)c1 (centres unmarked) [I-A-91]	0.76	0.96		
CCN(C(=O)c1cnc(Sc2ncccn2)n1C)c1cccnc1 [I-A-98]	1.04	1.22	90	
Cc1cnc(Sc2ncc(C(=O)N(C)c3cccnc3)n2C)nc1C [I-A-103]	1.23		100	
CN(C(=O)c1cnc(Sc2ncccn2)n1Cc1ccccc1)c1cccnc1 [I-A-111, 1-benzyl-N-methyl-N-(pyridin-3-yl)-2-(pyrimidin-2-ylsulphanyl)-1H-imidazole-5-carboxamide]				chromatographic logP [1, 4]: 1.73; chromatographic logP [1, 5]: 1.78

Structure (SMILES)	logP[a] [1]	logP[b] [1]	efficacy (aphids killed) [2] [%]	other results
CN(C(=O)c1cnc(SCc2nccn2C)n1C)c1cccnc1 [I-A-118]		0.89		
CN(C(=O)c1cnc(SCc2cccnc2)n1C)c1cccnc1 [I-A-119]	0.39	1.15	90	
CN(C(=O)c1cnc(SCc2ccco2)n1C)c1cccnc1 [I-A-120]	1.34	1.55	90	
CN(C(=O)c1cnc(SCc2c(F)cccc2F)n1C)c1cccnc1 [I-A-123]	1.69	1.92	90	
COC(=O)c1cnc(Sc2ncc(C(=O)N(C)c3cccnc3)n2C)n1C [I-A-143]	1.12	1.27		
Cc1cc(C)nc(Sc2ncc(C(=O)O)n2C)n1 [IV-1]				log P[a] [1, 6]: 0.81
Cn1c(C(=O)O)cnc1SCC1CC1 [IV-2]				log P[a] [1, 6]: 0.62; log P[n] [1, 7]: −0.18
Cn1c(C(=O)O)cnc1Br [IX-1, 1-methyl-2-bromoimidazole-5-carboxylic acid]				chromatographic logP [1, 3]: 0.31
COC(=O)c1cnc(Sc2nc(C)cc(C)n2)n1C [VIII-1]				log P[a] [1, 6]: 1.78; log P[n] [1, 7]: 1.80
COC(=O)c1cnc(SCC2CC2)n1C [VIII-2]				log P[a] [1, 6]: 2.06; log P[n] [1, 7]: 2.26
CN(C(=O)c1cnc(Br)n1C)c1cccnc1 [XI-1]				log P[a] [1, 6]: 0.65; log P[n] [1, 7]: 0.93
Cn1cc(C(=O)O)nc1Br [XIX-1, 2-bromo-1-methyl-1H-imidazole-4-carboxylic acid]				chromatographic logP [1, 3]: 0
CN(C(=O)c1cncn1C)c1cccnc1 [XV-1]				log P[n] [1, 7]: 0.42
Cn1cnc(C(=O)OC(C)(C)C)c1 [XVII-1, tert-butyl 1-methyl-1H-imidazole-4-carboxylate]				chromatographic logP [1, 3]: 0.74
Cn1cc(C(=O)OC(C)(C)C)nc1Br [XVIII-1, tert-butyl 2-bromo-1-methyl-1H-imidazole-4-carboxylate]				chromatographic logP [1, 3]: 1.27
CN(C(=O)c1cn(C)c(Br)n1)c1cccnc1 [XXI-1]				log P[n] [1, 7]: 0.76

Now from value to molecule, other results behind:

logP[a] [1]	logP[b] [1]	Structure (SMILES)	efficacy (aphids killed) [2] [%]	other results
1.25	1.31	CN(C(=O)c1c(Br)nc(Sc2ncccn2)n1C)c1cccnc1 [I-A-13]		
1.89	2.26	CN(C(=O)c1cnc(SC2CCCCC2)n1C)c1cccnc1 [I-A-17]		
0.67 and 0.71		CC(=O)CSc1ncc(C(=O)N(C)c2cccnc2)n1C [I-A-23]	90	
1.20	1.34	CCOC(=O)CSc1ncc(C(=O)N(C)c2cccnc2)n1C [I-A-24]	90	
0.28	1.05	CN(C(=O)c1cnc(SCC(=O)O)n1C)c1cccnc1 [I-A-29]		
0.59	0.81	CN(C)C(=O)CSc1ncc(C(=O)N(C)c2cccnc2)n1C [I-A-34]		
0.71	1.54	CCSc1ncc(C(=O)Nc2cccnc2)n1C [I-A-41]	90	
0.35	0.55	CNC(=O)CS(=O)(=O)c1ncc(C(=O)N(C)c2cccnc2)n1C [I-A-42]		
2.75	2.92	CN(C(=O)c1cnc(Sc2ccc(C(C)(C)C)cc2)n1C)c1cccnc1 [I-A-63]		
1.71	1.77	CN(C(=O)c1cnc(Sc2cccc([N+](=O)[O-])c2)n1C)c1cccnc1 [I-A-68]	100	
1.81	1.87	CN(C(=O)c1cnc(S(=O)(=O)c2cccc(Cl)c2)n1C)c1cccnc1 [I-A-73]	90	
1.45	1.55	CN(C(=O)c1cnc([S+]([O-])c2cccc(Cl)c2)n1C)c1cccnc1 (centres unmarked) [I-A-74]	90	
2.53	2.55	CN(C(=O)c1cnc(S(=O)(=O)c2ccc(C(C)(C)C)cc2)n1C)c1cccnc1 [I-A-76]		
1.53	1.58	COc1ccc(S(=O)(=O)c2ncc(C(=O)N(C)c3cccnc3)n2C)cc1 [I-A-81]		
1.58	1.68	CN(C(=O)c1cnc(S(=O)(=O)c2ccc([N+](=O)[O-])cc2)n1C)c1cccnc1 [I-A-90]		
1.12	1.29	CN(C)C(=O)c1ccccc1S(=O)(=O)c1ncc(C(=O)N(C)c2cccnc2)n1C [I-A-92]		
0.20	0.85	CN(C(=O)c1cnc(SCc2cncn2C)n1C)c1cccnc1 [I-A-114]		
0.76	1.12	CN(C(=O)c1cnc(SCc2ccn(C)n2)n1C)c1cccnc1 [I-A-115]		
2.51	2.62	CN(C(=O)c1cnc(SCc2ccc(Cl)c(Cl)c2)n1C)c1cccnc1 [I-A-121]		
1.72	2.03	COc1cccc(F)c1CSc1ncc(C(=O)N(C)c2cccnc2)n1C [I-A-124]	90	
1.89	2.09	CN(C(=O)c1cnc(SCc2c(F)cccc2Cl)n1C)c1cccnc1 [I-A-127]	90	
2.32	2.44	Cc1cccc(C)c1CSc1ncc(C(=O)N(C)c2cccnc2)n1C [I-A-129]		
1.28	1.40	Cc1cc([N+](=O)[O-])nn1CSc1ncc(C(=O)N(C)c2cccnc2)n1C [I-A-131]	90	
0.59	0.94	CN(C(=O)c1cnc(SCC(=O)NC2CC2)n1C)c1cccnc1 [I-A-132]	90	
1.06	1.22	COC(=O)C(C)(C)NC(=O)CSc1ncc(C(=O)N(C)c2cccnc2)n1C [I-A-133]		
